What was measured:
[1] = target: T1, Cyclooxygenase-1 (COX-1) (Homo sapiens, UniProt P23219); experiment: Inhibition of cyclooxygenase-1 (COX-1) activity in human platelets (thromboxane B2 ELISA); format: cell-based; conditions: 50 μM arachidonic acid, mean of three independent experiments, read-out: COX-1 (μM), results expressed as IC50 values
T1 construct: Platelets were isolated from peripheral human blood obtained from healthy donors; endogenous in cells; host or cells: human platelets from peripheral blood of healthy donors
Method: (§1) For the whole-cell COX-1 and COX-2 assays, stock solutions (10^−3M) of the drugs were dissolved in 50% dimethylsulphoxide, and further dilutions were done with medium.
Inhibition of Cyclooxygenase-1 (COX-1) Activity in Human Platelets
The blood was anticoagulated with 2 mg/ml sodium EDTA and centrifuged at 180 g for 10 min. at room temperature to obtain platelet-rich plasma. The platelet-rich plasma was centrifuged at 2000 g for 20 min. at 4° C. to obtain a platelet pellet. Cells were washed twice with PBS without […] and resuspended to 5×10^7 cells with Hank's balanced salt solution (HBSS). Platelets (10^7) were preincubated with the drugs for 15 min. at 37° C. and incubations were continued for a further 15 min. in the presence of 50 μM arachidonic acid. The production of tromboxane B2 in response to arachidonic acid was measured in the supernatants using a solid-phase immunoassay (ELISA). The results are expressed as the mean of the IC50 values obtained from three independent experiments.
(§2) For the whole-cell COX-1 and COX-2 assays stock solutions (10^−3 M) of the drugs wer dissolved in 50% dimethylsulphoxide, and further dilutions were done with medium.

[2] = target: T2, Cyclooxygenase-2 (COX-2) (Homo sapiens, UniProt P35354); experiment: Inhibition of cyclooxygenase-2 (COX-2) activity in HUV-EC-C cell line (prostaglandin E2 ELISA); format: cell-based; conditions: for IC50: PMA/TPA-induced HUV-EC-C cells, 50 μM arachidonic acid, mean of three independent experiments, read-out: COX-2 (μM), results expressed as IC50 values; for Ratio COX-1:COX-2: ratio of IC50 COX-1 (platelets) to IC50 COX-2 (HUV-EC-C)
T2 construct: Quiescent HUV-EC-C cells were treated with 50 nM TPA for 6 h at 37° C. to induce the COX-2 isoenzyme; endogenous in cells; host or cells: HUV-EC-C human endothelial cell line, passage 19-27, induced with 50 nM TPA/PMA
T2 sequence (P35354 18-604): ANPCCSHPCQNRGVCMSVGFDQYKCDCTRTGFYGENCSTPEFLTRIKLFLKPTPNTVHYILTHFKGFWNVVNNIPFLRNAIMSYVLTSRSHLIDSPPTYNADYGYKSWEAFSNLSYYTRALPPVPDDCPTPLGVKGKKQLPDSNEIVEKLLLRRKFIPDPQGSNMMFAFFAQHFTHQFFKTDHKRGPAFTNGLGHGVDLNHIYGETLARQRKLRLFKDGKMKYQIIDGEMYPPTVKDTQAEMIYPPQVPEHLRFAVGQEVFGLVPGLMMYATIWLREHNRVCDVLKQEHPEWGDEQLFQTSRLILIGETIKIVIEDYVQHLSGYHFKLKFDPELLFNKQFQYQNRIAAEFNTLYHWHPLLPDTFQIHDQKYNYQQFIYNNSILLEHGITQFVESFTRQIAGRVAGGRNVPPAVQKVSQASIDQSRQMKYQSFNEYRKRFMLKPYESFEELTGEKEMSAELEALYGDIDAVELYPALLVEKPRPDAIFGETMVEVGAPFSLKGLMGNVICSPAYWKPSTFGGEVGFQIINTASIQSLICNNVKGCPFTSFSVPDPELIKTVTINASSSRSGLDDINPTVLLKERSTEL
Method: as §1
Inhibition of Cyclooxygenase-2 (COX-2) Activity in HUV-EC-C Cell Line
HUV-EC-C cells were grown on Ham's F12K medium containing 10% fetal bovine serum, 100 μg/ml heparin and 50 μg/ml Endothelial Cell Growth Supplement (ECGS). Experiments were performed with HUV-EC-C passage 19-27. Cells (2×10^4) were seeded onto 96-well plates and made quiescent by removing the growth factor for 48 h before the initiation of the experiments. Quiescent HUV-EC-C cells were treated with 50 nM TPA for 6 h at 37° C. to induce the COX-2 isoenzyme. The cultured medium was then changed and cells were incubated with drugs for 30 min. at 37° C. Arachidonic acid (50 μM) was then added, and the cells were incubated for a further 30 min. The production of prostaglandine E2 in response to arachidonic acid was measured in the supernatants using a solid-phase immunoassay (ELISA). The results are expressed as the mean of the IC50 values obtained from three independent experiments.
as §2

[3] = test system: adjuvant arthritis (Mycobacterium tuberculosis in paraffin oil, hind paw); experiment: Anti-inflammatory activity (adjuvant arthritis), hind paw volume; format: in vivo, Male Wistar rats; conditions: paw volume on day 21
Method: Anti-Inflammatory Activity (Adjuvant Arthritis)
Male Wistar rats weighing 175-200 g with free access to food and water were used. On day 0, the animals received an intraplantar injection of a suspension of Mycobacterium tuberculosis in paraffin oil (0.5 mg/rat) on the left hind paw. A group of 8 nonarthritic control rats were injected with paraffin oil alone. On days 11 and 14 after induction of arthritis, the volume of the hind paw of each rat was measured using a water plehysmograph. Animals whose paw volumes increased during that time were selected. Rats were distributed into groups of 8 having equal mean paw volumes and an approximately equal standard deviation.
Test compounds were administered p.o. once daily for 7 days (days 14-20). Nonarthritic and arthritic control rats received vehicle alone for 7 days. The hind paw volumes were measured 20 h after the last dose (on day 21). The body weight was determined every second day.
The results are expressed as the percentage of inhibition of inflammation (paw volume) for each treatment group, considering both the arthritic and nonarthritic vehicle controls. The ANOVA test was used for statistical studies.
(§3) For the in vivo assays all drugs were administered in vehicle (0.1% Tween 80+0.5% methylcellulose in distilled water) in a volume of 5 ml/kg.

[4] = test system: glandular stomach; experiment: Ulcerogenic activity (gastric lesion index); format: in vivo, Male Wistar rat; conditions: oral route, fasted rats, sacrificed 6 hours after dosage
Method: Animals: Male Wistar (Interfauna, U.K., Ltd.) weighing about 120-150 g were used. They were maintained on a 12:12 hour light-dark cycle (lights on at 7:00 a.m.) at room temperature (22±1° C.). The animals were fasted for 18 h prior to the experiment with free access to drinking water.
Procedure: Experiments were performed from 9 to 17 h. The compounds were administered by-the oral route and the animals were sacrificed 6 hours after drugs dosage. The stomach of each rat was removed, opened and gently washed. The macroscopic severity of the erosions was assessed using a parametric scale (Cosen and Mazure), evaluating the number and size of the ulcers in the glandular stomach. Thus, each stomach was classified with an index lesion and compared with the gastrolesivity induced by ketorolac 100 mg/kg p.o., used as a positive standard. The treatments were randomized in each experiment.
as §3

[5] = 1 mg/kg p.o. once daily for 7 days (days 14-20)

T1 sequence (P23219 24-599): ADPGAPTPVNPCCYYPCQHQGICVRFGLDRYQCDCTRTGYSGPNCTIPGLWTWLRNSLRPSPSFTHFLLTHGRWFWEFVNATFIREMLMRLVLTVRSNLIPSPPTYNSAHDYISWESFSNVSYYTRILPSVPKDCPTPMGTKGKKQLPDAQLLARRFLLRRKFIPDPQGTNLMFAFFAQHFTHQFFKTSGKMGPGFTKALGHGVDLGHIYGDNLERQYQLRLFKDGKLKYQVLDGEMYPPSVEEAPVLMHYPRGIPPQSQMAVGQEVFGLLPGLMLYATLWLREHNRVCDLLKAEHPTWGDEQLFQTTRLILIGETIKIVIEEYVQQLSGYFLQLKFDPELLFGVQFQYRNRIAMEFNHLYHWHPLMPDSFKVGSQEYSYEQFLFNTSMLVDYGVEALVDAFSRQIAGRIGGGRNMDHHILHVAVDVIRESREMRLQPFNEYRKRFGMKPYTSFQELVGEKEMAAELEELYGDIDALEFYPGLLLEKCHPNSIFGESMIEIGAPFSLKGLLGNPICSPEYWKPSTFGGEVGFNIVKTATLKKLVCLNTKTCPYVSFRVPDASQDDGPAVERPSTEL

Structure (SMILES) | IC50 [1] [µM] | IC50 [2] [µM] | Ratio COX-1:COX-2 [2] | % Inhibition (dose, mg/kg) ([3]; 3 mg/kg p.o. once daily for 7 days (days 14-20)) | UD50 [4] [mg/kg] | melting point [°C] | % Inhibition (dose, mg/kg) [3, 5]
CS(=O)(=O)c1ccc(-c2coc(=O)n2-c2ccc(F)cc2)cc1 [Compound 6, 3-(4-fluorophenyl)-4-(4-methylsulfonylphenyl)-2-(3H)-oxazolone] | 127 | 3.2 | 39.6 | 52 (3) % | >100 |  | 
CS(=O)(=O)c1ccc(-c2coc(=O)n2-c2ccc(Br)cc2)cc1 [Compound 9, 3-(4-bromophenyl)-4-(4-methylsulfonylphenyl)-2-(3H)-oxazolone] | > 100 | 0.11 | >909 |  |  | 217 to 219 | 
NS(=O)(=O)c1ccc(-c2coc(=O)n2-c2ccc(F)cc2)cc1 [Compound 18, 3-(4-fluorophenyl)-4-(4-aminosulfonylphenyl)-2-(3H)-oxazolone] | 1.5 | 0.53 | 2.8 |  |  |  | 63 (1) %
NS(=O)(=O)c1ccc(-c2coc(=O)n2-c2ccc(Cl)c(Cl)c2)cc1 [Compound 20, 3-(3,4-dichlorophenyl)-4-(4-aminosulphonylphenyl)-2-(3H)-oxazolone] | 3.5 | 0.06 | 58.3 |  | >100 |  | 67 (1) %
NS(=O)(=O)c1ccc(-c2coc(=O)n2-c2ccccc2F)cc1 [Compound 26, 3-(2-fluorophenyl)-4-(4-aminosulphonylphenyl)-2-(3H)-oxazolone] | 22.6 | 0.0096 | 2354 |  | >100 |  | 65 (1) %
NS(=O)(=O)c1ccc(-c2coc(=O)n2-c2ccc(F)cc2F)cc1 [Compound 27, 3-(2,4-difluorophenyl)-4-(4-aminosulphonylphenyl)-2-(3H)-oxazolone] | 8.9 | 0.1 | 89 |  | >100 |  | 64 (1) %
COc1ccc2c(c1)c(CC(=O)O)c(C)n2C(=O)c1ccc(Cl)cc1 [Indomethacin, 1-(4-chlorobenzoyl)-5-methoxy-2-methylindole-3-acetic acid, reference compound] |  |  |  |  | 17 |  | 64 (1) %
